How the values were obtained:
Assay type in all cases: toxicity, cell-based
[1] = tested on: HEK-293T; assay: Incucyte cell viability with HEK293T; conditions: human, 10 µM, compound concentration 10 uM
[2] = tested on: Fibroblast; assay: Incucyte cell viability with human fibroblast; conditions: 10 µM, compound concentration 10 uM
[3] = tested on: U2OS; assay: Incucyte cell viability with U2OS; conditions: human, 10 µM, compound concentration 10 uM
Note: unitless GR value; below 1 slowed growth and below 0 cell loss.

| Structure (SMILES) | Growth Rate ([1]; 6 h, replicate number 1) | Growth Rate ([1]; 12 h, replicate number 2) | Growth Rate ([1]; 18 h, replicate number 1) | Growth Rate ([1]; 18 h, replicate number 2) | Growth Rate ([1]; 24 h, replicate number 1) | Growth Rate ([1]; 24 h, replicate number 2) | Growth Rate ([2]; 6 h, replicate number 1) | Growth Rate ([2]; 6 h, replicate number 2) | Growth Rate ([2]; 18 h, replicate number 2) | Growth Rate ([2]; 24 h, replicate number 2) | Growth Rate ([3]; 0 h, replicate number 2) | Growth Rate ([3]; 6 h, replicate number 1) | Growth Rate ([3]; 6 h, replicate number 2) | Growth Rate ([3]; 12 h, replicate number 2) | Growth Rate ([3]; 18 h, replicate number 1) | Growth Rate ([3]; 18 h, replicate number 2) | Growth Rate ([3]; 24 h, replicate number 1) | Growth Rate ([3]; 24 h, replicate number 2) | Growth Rate ([1]; 0 h, replicate number 2) | Growth Rate ([2]; 0 h, replicate number 2) | further results |
| --- | --- | --- | --- | --- | --- | --- | --- | --- | --- | --- | --- | --- | --- | --- | --- | --- | --- | --- | --- | --- | --- |
| COc1ncc(-c2cc(-c3ncc(CN4C[C@@H](C)O[C@@H](C)C4)o3)c3cn[nH]c3c2)cc1NS(C)(=O)=O | -0.44 | -0.32 | -0.01 | -0.2 | 0.05 | -0.11 | -0.74 | -0.56 | 0.05 | 0.3 | -0.39 | -0.31 | -0.02 | 0.02 | 0.72 | 0.21 | 0.82 | 0.36 |  |  | Growth Rate ([1]; 6 h, replicate number 2): -0.64; Growth Rate ([1]; 12 h, replicate number 1): -0.15; Growth Rate ([2]; 12 h, replicate number 1): -0.39; Growth Rate ([2]; 12 h, replicate number 2): -0.16; Growth Rate ([2]; 18 h, replicate number 1): -0.21; Growth Rate ([2]; 24 h, replicate number 1): -0.03; Growth Rate ([3]; 12 h, replicate number 1): 0.56 |
| Br.CO[C@H]1CC=C2CCN3CCC4=C(CC(=O)OC4)[C@]23C1 | 0.59 |  |  |  |  |  | -1 | 0.8 | 0.7 | 0.72 |  | 0.39 | 0.78 | 0.77 |  | 0.87 |  | 1 | 0.77 | 0.3 | Growth Rate ([2]; 0 h, replicate number 1): 0.93; Growth Rate ([2]; 12 h, replicate number 2): 0.64 |
| Cc1cc(C)cc(C(=O)NOCCCCCC(=O)NO)c1 |  | 0.82 | 0.12 | 0.44 | 0.14 | 0.28 |  | -0.16 | 0.23 | 0.51 |  | 0.62 | 0.86 | 0.58 | 0.71 | 0.5 | 0.26 | 0.22 | 0.89 |  | Growth Rate ([1]; 12 h, replicate number 1): 0.34; Growth Rate ([2]; 0 h, replicate number 1): -0.28; Growth Rate ([2]; 12 h, replicate number 1): -0.96; Growth Rate ([2]; 12 h, replicate number 2): 0.86; Growth Rate ([2]; 18 h, replicate number 1): -0.74; Growth Rate ([2]; 24 h, replicate number 1): -0.33 |
| O=S(=O)(Nc1nnc2cc(OCC34CC5CC(CC(C5)C3)C4)c(C3CC3)cn12)C1CC1 | 0.8 |  |  |  |  |  | 0.92 | -1 | 0.43 | 0.63 |  |  | 0.37 | 0.76 |  | 0.91 | 0.94 | 0.89 | 0.41 |  | Growth Rate ([1]; 0 h, replicate number 1): 0.55; Growth Rate ([2]; 12 h, replicate number 1): -1; Growth Rate ([2]; 12 h, replicate number 2): 0.16; Growth Rate ([2]; 18 h, replicate number 1): 0.51; Growth Rate ([3]; 12 h, replicate number 1): 0.94 |
| CCCCc1c(-c2ccccc2)nc(N)nc1-c1ccc(OCc2ccccc2)c(F)c1F |  | 0.89 |  |  |  | 0.99 |  |  |  |  | -0.86 | 0.5 | 0.27 | 0.36 |  | 0.55 | 1 | 0.77 | -0.46 | 0.8 | Growth Rate ([1]; 0 h, replicate number 1): -0.23 |
| CCn1c(=O)c2c(C)c(C(=O)N3CCC(O)CC3)sc2n(CCC(F)(F)F)c1=O | 0.41 |  | 0.74 | 0.86 | 0.83 |  |  |  |  | 0.97 |  |  | 0.72 | 0.97 |  | 0.97 |  |  | 0.32 | 0.25 | Growth Rate ([1]; 0 h, replicate number 1): 0.93; Growth Rate ([1]; 12 h, replicate number 1): 0.79 |
| CN(C)C(=O)Cn1cc(-c2nc([C@@](C)(c3ccc(-c4cnc(N)nc4)cc3)C3CC3)no2)cn1 [BI 665915] | 0.47 |  | 0.93 | 0.9 | 0.96 |  | 0.2 |  | 0.97 |  | 0.28 | 0.55 | 0.71 | 0.87 |  | 0.99 | 0.95 | 0.88 |  | -0.12 | Growth Rate ([1]; 0 h, replicate number 1): 0.53; Growth Rate ([2]; 0 h, replicate number 1): -1; Growth Rate ([2]; 12 h, replicate number 1): 0.51; Growth Rate ([2]; 18 h, replicate number 1): 0.71; Growth Rate ([2]; 24 h, replicate number 1): 0.6; Growth Rate ([3]; 12 h, replicate number 1): 0.68 |
| Cc1c(NC(=O)c2cccn(-c3ccc(F)cc3)c2=O)ccc(Oc2ccnc(NC(=O)C3CC3)c2)c1C | 0.59 | 0.78 |  | 0.94 |  |  | 0.52 | 0.99 |  |  | -0.46 |  |  |  | 0.85 |  |  | 0.96 |  | 0.16 | Growth Rate ([1]; 6 h, replicate number 2): 0.27; Growth Rate ([3]; 0 h, replicate number 1): -0.05; Growth Rate ([3]; 12 h, replicate number 1): 0.92 |
| CC1(C)C[C@@H]1C(=O)N/C(=C\CCCCSC[C@H](N)C(=O)O)C(=O)O [CILASTATIN] | 0.74 | 0.9 |  |  |  |  |  | 0.61 |  | 0.83 | 0.88 |  | 0.81 | 0.74 | 0.9 | 0.82 | 0.9 | 0.79 | 0.73 | -0.91 | Growth Rate ([1]; 0 h, replicate number 1): -0.01; Growth Rate ([1]; 6 h, replicate number 2): 0.55; Growth Rate ([3]; 12 h, replicate number 1): 0.97 |
| NCC1CCC(CNc2nc(NCc3ccccc3OC(F)(F)F)ncc2[N+](=O)[O-])CC1 (configuration not stated) | -0.6 | -0.27 | -0.04 | -0.01 | 0.09 | 0.1 | 0.48 | 0.74 | 0.35 | 0.35 |  | 0.45 | 0.71 | 0.59 | 0.69 | 0.63 | 0.84 | 0.59 |  |  | Growth Rate ([1]; 6 h, replicate number 2): -0.49; Growth Rate ([1]; 12 h, replicate number 1): -0.36; Growth Rate ([2]; 0 h, replicate number 1): -0.85; Growth Rate ([2]; 12 h, replicate number 1): 0.28; Growth Rate ([2]; 12 h, replicate number 2): 0.57; Growth Rate ([2]; 18 h, replicate number 1): -0.03; Growth Rate ([2]; 24 h, replicate number 1): 0.04; Growth Rate ([3]; 12 h, replicate number 1): 0.44 |
| COCCCS(=O)(=O)c1cc(C)c(-c2ccc(F)c3c2CC[C@H]3Oc2ccc3c(c2)OC[C@H]3CC(=O)O)c(C)c1 | 0.78 |  | 0.82 |  | 0.81 |  | 1 |  |  |  | -1 | 0.63 | 0.65 | 0.95 | 0.79 | 0.88 |  | 0.9 | -0.02 | 0.7 | Growth Rate ([1]; 12 h, replicate number 1): 0.83 |
| CCc1ncnc(N2CCN(C(C)=O)CC2)c1C#Cc1ccc(N)nc1.Cl.Cl | -0.05 | -0.05 | 0.05 | 0.01 | 0.01 | 0.02 |  | 0.3 | 0.52 | 0.53 |  | 0.86 |  | 0.99 | 0.73 | 0.8 | 0.7 | 0.68 | -0.97 |  | Growth Rate ([1]; 6 h, replicate number 2): -0.04; Growth Rate ([1]; 12 h, replicate number 1): 0.06; Growth Rate ([2]; 12 h, replicate number 1): 0.68; Growth Rate ([2]; 12 h, replicate number 2): 0.76; Growth Rate ([2]; 18 h, replicate number 1): 0.66; Growth Rate ([2]; 24 h, replicate number 1): 0.61; Growth Rate ([3]; 0 h, replicate number 1): -0.47; Growth Rate ([3]; 12 h, replicate number 1): 0.73 |
| COc1cc(N2CCN(C)CC2)ccc1Nc1nccc(-c2cn(C)c3cnccc23)n1 |  |  |  |  |  | 0.8 | -1 |  |  |  | -0.71 |  |  |  |  |  | 0.75 |  | -0.69 | 0.04 | Growth Rate ([1]; 0 h, replicate number 1): -0.65 |
| CC(C)(O)c1coc(S(=O)(=O)NC(=O)Nc2c3c(cc4c2CCC4)CCC3)c1 |  |  |  |  |  |  |  |  |  |  |  | 0.92 |  | 0.89 |  | 0.99 |  | 0.94 | 0.34 | 0.57 | Growth Rate ([1]; 0 h, replicate number 1): -0.08; Growth Rate ([2]; 24 h, replicate number 1): 0.99; Growth Rate ([3]; 0 h, replicate number 1): 0.85; Growth Rate ([3]; 12 h, replicate number 1): 0.88 |
| O=C(NNC(=O)c1ccc(CNS(=O)(=O)c2ccc(F)c(Cl)c2)cc1)c1ccccc1 | 0.34 | 0.64 | 0.31 | 0.87 | 0.36 | 0.83 |  | -0.76 | 0.85 |  | 0.85 |  |  |  | 0.97 |  |  |  |  | -1 | Growth Rate ([1]; 6 h, replicate number 2): 0.59; Growth Rate ([1]; 12 h, replicate number 1): 0.48; Growth Rate ([2]; 0 h, replicate number 1): -0.42; Growth Rate ([2]; 18 h, replicate number 1): 0.64; Growth Rate ([3]; 0 h, replicate number 1): 0.67 |
| CN1CCN(C(=O)c2ccc3cc2OCCOCCNc2ccn4ncc-3c4n2)CC1 | 0.93 | 0.93 | 0.93 | 0.85 | 0.92 | 0.89 | 0.73 | 0.92 |  |  |  |  |  |  | 0.81 |  |  |  |  | 0.92 | Growth Rate ([1]; 6 h, replicate number 2): 0.6; Growth Rate ([3]; 0 h, replicate number 1): -0.07 |

From ChEMBL document CHEMBL5303304, “EUbOPEN Chemogenomics Library - IncuCyte” (2023)
